Data taken from patent US8530430B2, “TTK peptides and vaccines including the same” (Oncotherapy Science, Inc., priority 2009, dated 2013).

Assays:
[1] = test system: peptide-pulsed T2 cells; experiment: IFN-gamma ELISPOT assay on CTLs induced with TTK peptides; assay type: cell-based, human; conditions: wells of CTLs stimulated with the peptide, against peptide-pulsed target cells compared to control wells
Excerpt: Monocyte-derived dendritic cells (DCs) were used as antigen-presenting cells (APCs) to induce cytotoxic T lymphocyte (CTL) responses against peptides presented on human leukocyte antigen (HLA). DCs were generated in vitro as described elsewhere (Nakahara S et al., Cancer Res 2003 Jul. 15, 63(14): 4112-8). Specifically, peripheral blood mononuclear cells (PBMCs) isolated from a normal volunteer (HLA-A*0201 positive) by Ficoll-Plaque (Pharmacia) solution were separated by adherence to a plastic tissue culture dish (Becton Dickinson) so as to enrich them as the monocyte fraction. The monocyte-enriched population was cultured in the presence of 1,000 U/ml of granulocyte-macrophage colony-stimulating factor (GM-CSF) (R&D System) and 1,000 U/ml of interleukin (IL)-4 (R&D System) in AIM-V Medium (Invitrogen) containing 2% heat-inactivated autologous serum (AS). After 7 days of culture, the cytokine-induced DCs were pulsed with 20 micro-g/ml of each of the synthesized peptides in the presence of 3 micro-g/ml of beta 2-microglobulin for 3 hrs at 37 degrees C. in AIM-V Medium. The generated cells appeared to express DC-associated molecules, such as CD80, CD83, CD86 and HLA class II, on their cell surfaces (data not shown). These peptide-pulsed DCs were then inactivated by X-irradiation (20 Gy) and mixed at a 1:20 ratio with autologous CD8+ T cells, obtained by positive selection with CD8 Positive Isolation Kit (Dynal). These cultures were set up in 48-well plates (Corning); each well contained 1.5×10^4 peptide-pulsed DCs, 3×10^5 CD8+ T cells and 10 ng/ml of IL-7 (R&D System) in 0.5 ml of AIM-V/2% AS medium. Three days later, these cultures were supplemented with IL-2 (CHIRON) to a final concentration of 20 IU/ml. On days 7 and 14, the T cells were further stimulated with the autologous peptide-pulsed DCs. The DCs were prepared each time by the same way described above. CTL was tested against peptide-pulsed T2 cells after the 3rd round of peptide stimulation on day 21 (Tanaka H et al., Br J Cancer 2001 Jan. 5, 84(1): 94-9; Umano Y et al., Br J Cancer 2001 Apr. 20, 84(8): 1052-7; Uchida N et al., Clin Cancer Res 2004 Dec. 15, 10(24): 8577-86; Suda T et al., Cancer Sci 2006 May, 97(5): 411-9; Watanabe T et al., Cancer Sci 2005 August, 96(8): 498-506).
(§1) Specifically, peptide-pulsed T2 (1×10^4/well) was prepared as stimulator cells. Cultured cells in 48 wells were used as responder cells. IFN-gamma ELISPOT assay and IFN-gamma ELISA assay were performed under manufacture procedure.

[2] = test system: peptide-pulsed T2 cells; experiment: IFN-gamma ELISA assay of established CTL lines and CTL clone; assay type: cell-based, human; conditions: for IFN-gamma production of CTL lines: CTL line established with the peptide, target cells pulsed with corresponding peptide vs without peptide pulse
Procedure: CTLs were expanded in culture using the method similar to the one described by Riddell et al. (Walter E A et al., N Engl J Med 1995 Oct. 19, 333(16): 1038-44; Riddell S R et al., Nat Med 1996 February, 2(2): 216-23). A total of 5×10^4 CTLs were resuspended in 25 ml of AIM-V/5% AS medium with 2 kinds of human B-lymphoblastoid cell lines, inactivated by Mitomycin C, in the presence of 40 ng/ml of anti-CD3 monoclonal antibody (Pharmingen). One day after initiating the cultures, 120 IU/ml of IL-2 were added to the cultures. The cultures were fed with fresh AIM-V/5% AS medium containing 30 IU/ml of IL-2 on days 5, 8 and 11 (Tanaka H et al., Br J Cancer 2001 Jan. 5, 84(1): 94-9; Umano Y et al., Br J Cancer 2001 Apr. 20, 84(8): 1052-7; Uchida N et al., Clin Cancer Res 2004 Dec. 15, 10(24): 8577-86; Suda T et al., Cancer Sci 2006 May, 97(5): 411-9; Watanabe T et al., Cancer Sci 2005 August, 96(8): 498-506).
The dilutions were made to have 0.3, 1, and 3 CTLs/well in 96 round-bottomed micro titer plate (Nalge Nunc International). CTLs were cultured with 1×10^4 cells/well of 2 kinds of human B-lymphoblastoid cell lines, 30 ng/ml of anti-CD3 antibody, and 125 U/ml of IL-2 in a total of 150 micro-l/well of AIM-V Medium containing 5% AS. 50 micro-1/well of IL-2 were added to the medium 10 days later so to reach a final concentration of 125 U/ml IL-2. CTL activity was tested on the 14th day, and CTL clone was expanded using the same method as described above (Uchida N et al., Clin Cancer Res 2004 Dec. 15, 10(24): 8577-86; Suda T et al., Cancer Sci 2006 May, 97(5): 411-9; Watanabe T et al., Cancer Sci 2005 August, 96(8): 498-506).
as §1

[3] = test system: COS7 transfected with both the full length TTK gene and the HLA-A*0201 molecule; conditions: results of WO2008/102557 duplicated as FIG. 4; cited from earlier work
[4] = test system: PC3 cells; experiment: Specific CTL activity against HLA-A2 negative, TTK positive control tumor cell line PC-3; assay type: cell-based, human
Excerpt: (§2) T2 (HLA-A2), human B-lymphoblastoid cell line and COST, African green monkey kidney cell line, were purchased from ATCC. HLA-A2 positive and TTK positive tumor cell line, H1650, was purchased from ATCC. HLA-A2 negative and TTK positive cell lines, PC-3 and TE-1, were purchased from JCRB Cell bank and RIKEN Cell Bank, respectively.
(§3) The established CTL lines and clones raised against each peptide were examined for the ability to recognize target cells that express TTK and HLA-A*0201 molecule. […] COS7 cells transfected with either full length of TTK genes or HLA-A*0201 were prepared as controls. […] And then this peptide-HLA complex was recognized by the CTLs.

[5] = test system: COS7 cells transfected with both the full length of TTK and HLA-A*0201 gene; experiment: Specific CTL activity against target cells expressing TTK and HLA-A*0201; assay type: cell-based, African green monkey
Excerpt: (§4) The cDNA encoding an open reading frame of target genes or HLA-A*0201 was amplified by PCR. The PCR-amplified products were cloned into a vector. The plasmids were transfected into COS7, which is the target genes and HLA-A*0201-negative cell line, using lipofectamine 2000 (Invitrogen) according to the manufacturer's recommended procedures. After 2 days from transfection, the transfected cells were harvested with versene (Invitrogen) and used as the target cells (5×10^4 cells/well) for CTL activity assay.
as §3

[6] = test system: H1650 cells; experiment: Specific CTL activity against HLA-A2 positive, TTK positive tumor cell line; assay type: cell-based, human; conditions: FIG. 3c
Excerpt: as §2, §3

[7] = test system: COS7 cells transfected with either full length of TTK genes or HLA-A*0201; experiment: Specific CTL activity against control COS7 transfectants; assay type: cell-based, African green monkey; conditions: CTL line and clone; COS7 expressing either TTK or HLA-A*0201 only
Excerpt: as §4, §3

[8] = test system: TE1 cells; experiment: Specific CTL activity against HLA-A2 negative, TTK positive control tumor cell line TE-1; assay type: cell-based, human
Excerpt: as §2, §3

Substance	IFN-gamma production of peptide-induced CTLs (peptide specific CTL activity) [1]	IFN-gamma production of CTL lines [2]	Specific CTL activity of CTL clones against COS7 transfected with both TTK and HLA-A*0201 [3]	further results
TTK-A02-9-142: 9-mer HLA-A*0201 binding candidate peptide derived from TTK, SEQ ID NO: 15 (FAFVHISFA)	potent IFN-gamm production	potent IFN-gamma production		
TTK-A02-9-146: 9-mer HLA-A*0201 binding candidate peptide derived from TTK, SEQ ID NO: 19 (HISFAQFEL)	potent IFN-gamm production			
TTK-A02-9-462: 9-mer HLA-A*0201 binding candidate peptide derived from TTK, SEQ ID NO: 1 (YMSCFRTPV)	potent IFN-gamm production	potent IFN-gamma production	specific CTL activity	
TTK-A02-9-547: 9-mer peptide derived from TTK, SEQ ID NO: 5, disclosed in Applicants' WO2008/102557 (KQIYAIKYV)			specific CTL activity	
TTK-A02-9-564: 9-mer HLA-A*0201 binding candidate peptide derived from TTK, SEQ ID NO: 20 (TLDSYRNEI)	potent IFN-gamm production			
TTK-A02-9-593: nonapeptide derived from TTK, HLA-A2 restricted epitope peptide, SEQ ID NO: 3 (ITDQYIYMV)	potent IFN-gamm production	potent IFN-gamma production		Specific CTL activity of CTL clone against control tumor cells [4]: no significant specific CTL activity was detected; CTL activity of CTL clone against COS7 cells expressing both TTK and HLA-A*0201 ([5]; CTL clone stimulated with the peptide as effector cells (FIG. 3b)): potent CTL activity; CTL activity of CTL line against COS7 cells expressing both TTK and HLA-A*0201 ([5]; CTL line stimulated with the peptide as effector cells (FIG. 3a)): potent CTL activity; Increase in the IFN-gamma production compared to the peptides of WO2008/102557 ([5]; compared to TTK-A2-9-462, TTK-A02-9-547, TTK-A2-9-719 and TTK-A2-10-462 (FIG. 3 vs FIG. 4)): one or two orders of magnitude; Specific CTL activity of CTL clone against tumor cell line endogenously expressing both TTK and HLA-A*0201 [6]: specific CTL activity; Specific CTL activity against the controls [7]: no significant specific CTL activity was detected; Specific CTL activity of CTL clone against control tumor cells [8]: no significant specific CTL activity was detected; IFN-gamma production of CTL clone ([2]; CTL clone established by limiting dilution from the CTL line, target cells pulsed with peptide): Potent IFN-gamma productions
TTK-A02-9-630: 9-mer HLA-A*0201 binding candidate peptide derived from TTK, SEQ ID NO: 2 (NMLEAVHTI)	potent IFN-gamm production	potent IFN-gamma production		
TTK-A02-9-719: 9-mer HLA-A*0201 binding candidate peptide derived from TTK, SEQ ID NO: 6 (SLGCILYYM)	potent IFN-gamm production	potent IFN-gamma production	specific CTL activity	
TTK-A02-10-462: 10-mer HLA-A*0201 binding candidate peptide derived from TTK, SEQ ID NO: 22 (YMSCFRTPVV)	potent IFN-gamm production	potent IFN-gamma production	specific CTL activity	
TTK-A02-10-542: 10-mer HLA-A*0201 binding candidate peptide derived from TTK, SEQ ID NO: 34 (VLNEKKQIYA)	potent IFN-gamm production			
TTK-A02-10-661: 10-mer HLA-A*0201 binding candidate peptide derived from TTK, SEQ ID NO: 35 (KLIDFGIANQ)	potent IFN-gamm production			
